Test results as given in patent publication US9000182B2, “2H-imidazol-4-amine compounds and their use as BACE inhibitors” (AstraZeneca AB, priority 2012, dated 2015).

What was measured:
[1] = test system: sAPPβ release in SH-SY5Y cells; assay: sAPPβ release assay; format: cell-based; conditions: 17 h incubation
Method: SH-SY5Y cells were cultured in DMEM/F-12 with Glutamax, 10% FCS and 1% non-essential amino acids and cryopreserved and stored at −140° C. at a concentration of 7.5-9.5×10^6 cells per vial. Thaw cells and seed at a conc. of around 10000 cells/well in DMEM/F-12 with Glutamax, 10% FCS and 1% non-essential amino acids to a 384-well tissue culture treated plate, […] cell susp/well. The cell plates were then incubated for 7-24 h at 37° C., 5% CO2. The cell medium was removed, followed by addition of 30 μL compound diluted in DMEM/F-12 with Glutamax, 10% FCS, 1% non-essential amino acids and 1% PeSt to a final conc. of 1% DMSO. The compounds were incubated with the cells for 17 h (overnight) at 37° C., 5% CO2. Meso Scale Discovery (MSD) plates were used for the detection of sAPPβ release. MSD sAPPβ plates were blocked in 1% BSA in Tris wash buffer (40 μL/well) for 1 h on shake at r.t. and washed 1 time in Tris wash buffer (40 μL/well). 20 μL of medium was transferred to the pre-blocked and washed MSD sAPPβ microplates, and the cell plates were further used in an ATP assay to measure cytotoxicity. The MSD plates were incubated with shaking at r.t. for 2 h and the media discarded. 10 μL detection antibody was added (1 nM) per well followed by incubation with shaking at r.t. for 2 h and then discarded. 40 μL Read Buffer was added per well and the plates were read in a SECTOR Imager.

[2] = target: T1, human β-Secretase (sBACE-Fc, soluble part AA 1-AA 460) (Homo sapiens (Human), UniProt P56817); assay: TR-FRET assay; format: biochemical; conditions: standard TR-FRET assay (values without footnote a)
Method: The β-secretase enzyme used in the TR-FRET is prepared as follows:
(§1) The enzyme (truncated form) was diluted to 6 μg/mL (stock 1.3 mg/mL) and the TruPoint BACE1 Substrate to 200 nM (stock 120 μM) in reaction buffer (NaAcetate, chaps, triton x-100, EDTA pH4.5). Enzyme and compound in dimethylsulphoxide (final DMSO concentration 5%) was mixed and pre-incubated for 10 minutes at RT. Substrate was then added and the reaction was incubated for 15 minutes at RT. The reaction was stopped with the addition of 0.35 vol Stop solution (NaAcetate, pH 9). The fluorescence of the product was measured on a Victor II plate reader with excitation wavelengths of 340-485 nm and emission wavelengths of 590-615 nm. […] The dimethylsulphoxide control, instead of test compound, defined the 100% activity level and 0% activity was defined by wells lacking enzyme (replaced with reaction buffer) or by a saturating dose of a known inhibitor, 2-amino-6-[3-(3-methoxyphenyl)phenyl]-3,6-dimethyl-5H-pyrimidin-4-one.

[3] = target: T1, human β-Secretase (sBACE-Fc, soluble part AA 1-AA 460); assay: Diluted TR-FRET assay; format: biochemical
Method: as §1, with “The enzyme (truncated form) was diluted to 6 μg/mL (stock 1.3 mg/mL) and the TruPoint BACE1 Substrate to 200 nM (stock 120 μM) in reaction buffer (NaAcetate, chaps, triton x-100, EDTA pH4.5).” left out, “Substrate was then added and the reaction was incubated for 15 minutes at RT.” left out

[4] = IC50 from the diluted FRET assay (footnote a): 50 times less enzyme, 6.5 h reaction time

T1 sequence (P56817 22-460): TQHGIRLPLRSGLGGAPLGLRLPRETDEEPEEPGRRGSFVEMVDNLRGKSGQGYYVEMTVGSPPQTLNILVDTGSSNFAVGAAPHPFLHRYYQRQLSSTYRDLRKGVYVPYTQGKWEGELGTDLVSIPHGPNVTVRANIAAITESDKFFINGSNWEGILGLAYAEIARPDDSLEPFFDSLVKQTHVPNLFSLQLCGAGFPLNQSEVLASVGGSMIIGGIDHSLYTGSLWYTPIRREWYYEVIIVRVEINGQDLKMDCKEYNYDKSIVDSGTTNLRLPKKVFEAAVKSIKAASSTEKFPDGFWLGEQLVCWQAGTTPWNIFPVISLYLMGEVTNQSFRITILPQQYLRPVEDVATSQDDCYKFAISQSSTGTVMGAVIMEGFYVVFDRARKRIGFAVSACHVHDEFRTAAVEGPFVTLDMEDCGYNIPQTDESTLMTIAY

| SMILES | IC50 ([1]; Homo sapiens) [nM] | IC50 [2] [nM] | IC50 [1] [nM] | other results |
| --- | --- | --- | --- | --- |
| CO[C@H]1CC[C@]2(CC1)Cc1ccc(C#CC3CCC3)cc1C21N=C(C)C(N)=N1 (mixture of isomers) [Example 6, (1r,4r)-6′-(Cyclobutylethynyl)-4-methoxy-5″-methyl-3′H-dispiro[cyclohexane-1,2′-indene-1′,2″-imidazol]-4″-amine] | 2.1 | – | – | – |
| CO[C@H]1CC[C@]2(CC1)Cc1ccc(C#CC(C)C)cc1C21N=C(C)C(N)=N1 (mixture of isomers) [Example 8, (1r,4r)-4-Methoxy-5″-methyl-6′-(3-methylbut-1-yn-1-yl)-3′H-dispiro[cyclohexane-1,2′-indene-1′,2″-imidazol]-4″-amine] | 1.6 | – | – | – |
| CC1=N[C@@]2(N=C1N)c1cc(OCC(C)C)ccc1C[C@]21CC[C@@H](O)CC1 (single isomer, unassigned; isomer 1) [2, isomer 1] | – | 13 | – | – |
| CC1=N[C@@]2(N=C1N)c1cc(Br)ccc1C[C@]21CC[C@@H](O)CC1 (single isomer, unassigned; isomer 1) [5, isomer 1] | – | 270 | 96 | – |
| CO[C@H]1CC[C@]2(CC1)Cc1ccc(C#CC3CCC3)cc1[C@]21N=C(C)C(N)=N1 (single isomer, unassigned; isomer 1) [7, isomer 1] | – | – | 2 | – |
| CO[C@H]1CC[C@]2(CC1)Cc1ccc(C#CC(C)C)cc1[C@]21N=C(C)C(N)=N1 (single isomer, unassigned; isomer 1) [9, isomer 1] | – | – | 0.7 | – |
| CO[C@H]1CC[C@]2(CC1)Cc1ccc(OCCC(F)(F)F)cc1[C@@]21N=C(C)C(N)=N1 (single isomer, unassigned; isomer 1) [11, isomer 1] | – | – | 0.7 | – |
| CC1=N[C@]2(N=C1N)c1cc(OCCCF)ccc1C[C@]21CC[C@@H](OC(F)F)CC1 (single isomer, unassigned; isomer 1) [13, isomer 1] | – | – | 1.6 | IC50 [3, 4]: 3 nM |
| CC1=N[C@]2(N=C1N)c1cc(-c3cc(Cl)cc(C#N)c3)ccc1C[C@]21CC[C@@H](O)CC1 (single isomer, unassigned; isomer 1) [15, isomer 1] | – | – | 1.6 | IC50 [3, 4]: 3.2 nM |
| CC1=N[C@@]2(N=C1N)c1cc(OCCCF)ccc1C[C@]21CC[C@@H](OC(F)F)CC1 (single isomer, unassigned; isomer 2) [13, isomer 2] | – | 2900 | – | – |
| CC1=N[C@@]2(N=C1N)c1cc(-c3cc(Cl)cc(C#N)c3)ccc1C[C@]21CC[C@@H](O)CC1 (single isomer, unassigned; isomer 2) [15, isomer 2] | – | 780 | 216 | – |
| CO[C@H]1CC[C@]2(CC1)Cc1ccc(OCC(C)(F)F)cc1C21N=C(C)C(N)=N1 (stereo partly drawn) [Example 3, (1r,4r)-6′-(2,2-Difluoropropoxy)-4-methoxy-5″-methyl-3′H-dispiro[cyclohexane-1,2′-indene-1′,2″-imidazol]-4″-amine] | 2.4 | – | – | IC50 [3]: 6.7 nM |
| CO[C@H]1CC[C@]2(CC1)Cc1ccc(OCCC(F)(F)F)cc1C21N=C(C)C(N)=N1 (stereo partly drawn) [Example 10, (1r,4r)-4-Methoxy-5″-methyl-6′-(3,3,3-trifluoropropoxy)-3′H-dispiro[cyclohexane-1,2′-indene-1′,2″-imidazol]-4″-amine] | 0.6 | – | – | – |
| CO[C@H]1CC[C@]2(CC1)Cc1ccc(OCC(C)F)cc1C21N=C(C)C(N)=N1 (stereo partly drawn) [Example 14, (1r,4r)-6′-(2-Fluoropropoxy)-4-methoxy-5″-methyl-3′H-dispiro[cyclohexane-1,2′-indene-1′,2″-imidazol]-4″-amine] | 2.5 | – | – | IC50 [3]: 6.7 nM |
| CC1=NC2(N=C1N)c1cc(Br)ccc1C[C@]21CC[C@@H](OC(C)C)CC1 (stereo partly drawn) [Example 16, (1r,4r)-6′-Bromo-5″-methyl-4-(propan-2-yloxy)-3′H-dispiro[cyclohexane-1,2′-indene-1′,2″-imidazol]-4″-amine] | – | 3700 | – | – |
| CC1=NC2(N=C1N)c1cc(OCCCF)ccc1C[C@]21CC[C@@H](OC(C)C)CC1 (stereo partly drawn) [Example 17, (1r,4r)-6′-(3-Fluoropropoxy)-5″-methyl-4-(propan-2-yloxy)-3′H-dispiro[cyclohexane-1,2′-indene-1′,2″-imidazol]-4″-amine] | – | 250 | – | – |
| CC[C@@H](C)Oc1ccc2c(c1)C1(N=C(C)C(N)=N1)[C@]1(CC[C@H](OC)CC1)C2 (stereo partly drawn) [Example 18, (1r,4r)-6′-[(28)-Butan-2-yloxy]-4-methoxy-5″-methyl-3′H-dispiro[cyclohexane-1,2′-indene-1′,2″-imidazol]-4″-amine] | 16 | – | – | – |
| CO[C@H]1CC[C@]2(CC1)Cc1ccc(O)cc1[C@@]21N=C(C)C(N)=N1 [Example 19, (1r,1′R,4R)-4″-Amino-4-methoxy-5″-methyl-3′H-dispiro[cyclohexane-1,2′-indene-1′,2″-imidazol]-6′-ol] | – | 1300 | – | – |
